Experimental data: patent US20240216369A1, “THE USE OF A SPLICING MODULATOR FOR A TREATMENT SLOWING PROGRESSION OF HUNTINGTON'S DISEASE” (Novartis AG, priority 2019, published 2024)

Assays:
[1] = tested on: mHTT; assay: Mutant and total HTT multiplex HTRF assay in Q48 HTT human embryonic stem cell line: mHTT; assay type: cell-based; settings: Q48 HTT hESC, 48 hours
Protocol: (§1) The multiplex assay is performed in human embryonic stem cells (hESCs) which have been derived by Genea Biocells from human blastocysts of HD donors. Cells are plated at a density of 10,000 cells/well into 384-well collagen coated plates and left to adhere for 24 hours, compounds 1 to 82 are then added to cells and incubated for 48 hours (37° C., 5% CO2), cells are then lysed and the contents split into a black 384-well plate.
(§2) The black plates have a combination of HTRF labeled monoclonal antibodies added which recognize discrete areas of the HTT protein, the 2B7-Tb “donor” antibody (0.2 ng/well) recognizes a sequence at the N-terminus of the protein, an MW1-Alexa488 “acceptor 1” antibody (30 ng/well) recognizes an area in the polyQ region, whereas a MAB2166-d2 “acceptor 2” antibody (6 ng/well) recognizes a sequence beyond the polyQ region. The 2B7 antibody was obtained from Coriell (CH02024), the MW1 antibody from Millipore (MABN2427), and the MAB2166 antibody from Millipore (1HU-4C8).
(§3) These detection reagents are incubated with the cell lysate at room temperature for 4-6 hours before having their fluorescence quantified at 615 nm (donor) and 535 nm and 665 nm (acceptor 1 and 2 respectively). The donor/acceptor ratio between these signals indicates the relative quantities of mHTT and tHTT proteins. As shown in the Table 1, compounds 1 to 82 as described therein and in Table 2, had the following pIC50 values.

[2] = tested on: tHTT; assay: Mutant and total HTT multiplex HTRF assay in Q48 HTT human embryonic stem cell line: tHTT; assay type: cell-based; settings: Q48 HTT hESC, 48 hours
Protocol: as §1, §2, §3

SMILES: CN(c1ccc(-c2ccc(-c3cn[nH]c3)cc2O)nn1)C1CC(C)(C)NC(C)(C)C1 [Compound 1, 2-(6-(methyl(2,2,6,6-tetramethylpiperidin-4-yl)amino)pyridazin-3-yl)-5-(1H-pyrazol-4-yl)phenol]
- Rating (based on mHTT potency) [1]: ***** (a pIC50 value above 7.5 is indicated by five stars (*****))
- mHTT pIC50 [1]: 7.75
- tHTT pIC50 [2]: 7.8065

SMILES: CN(c1ccc(-c2cc3c(=O)n(C)ccc3cc2O)nn1)C1CC(C)(C)NC(C)(C)C1 [Compound 2, 6-hydroxy-2-methyl-7-(6-(methyl(2,2,6,6-tetramethylpiperidin-4-yl)amino)pyridazin-3-yl)isoquinolin-1(2H)-one]
- Rating (based on mHTT potency) [1]: ***** (a pIC50 value above 7.5 is indicated by five stars (*****))
- mHTT pIC50 [1]: 7.73
- tHTT pIC50 [2]: 7.6555

SMILES: CN(c1ccc(-c2ccc(-c3cn[nH]c3)cc2O)nn1)[C@H]1C[C@]2(C)CC[C@](C)(C1)N2 [Compound 3, 2-(6-(((1R,5S)-1,5-dimethyl-8-azabicyclo[3.2.1]octan-3-yl)(methyl)amino)pyridazin-3-yl)-5-(1H-pyrazol-4-yl)phenol]
- Rating (based on mHTT potency) [1]: ***** (a pIC50 value above 7.5 is indicated by five stars (*****))
- mHTT pIC50 [1]: 7.717
- tHTT pIC50 [2]: 7.609

SMILES: CN(c1ccc(-c2ccc(-n3ccc(N)n3)cc2O)nn1)C1CC(C)(C)NC(C)(C)C1 [Compound 4, 5-(3-amino-1H-pyrazol-1-yl)-2-(6-(methyl(2,2,6,6-tetramethylpiperidin-4-yl)amino)pyridazin-3-yl)phenol]
- Rating (based on mHTT potency) [1]: ***** (a pIC50 value above 7.5 is indicated by five stars (*****))
- mHTT pIC50 [1]: 7.6
- tHTT pIC50 [2]: 7.5845

SMILES: CN(c1ccc(-c2ccc(-c3ccn(C)c(=O)c3)cc2O)nn1)C1CC(C)(C)NC(C)(C)C1 [Compound 5, 4-(3-hydroxy-4-(6-(methyl(2,2,6,6-tetramethylpiperidin-4-yl)amino)pyridazin-3-yl)phenyl)-1-methylpyridin-2(1H)-one]
- Rating (based on mHTT potency) [1]: ***** (a pIC50 value above 7.5 is indicated by five stars (*****))
- mHTT pIC50 [1]: 7.591
- tHTT pIC50 [2]: 7.5935

SMILES: CN(c1nnc(-c2ccc(-c3ccc(=O)n(C)c3)cc2O)s1)C1CC(C)(C)NC(C)(C)C1 [Compound 6, 5-(3-hydroxy-4-(5-(methyl(2,2,6,6-tetramethylpiperidin-4-yl)amino)-1,3,4-thiadiazol-2-yl)phenyl)-1-methylpyridin-2(1H)-one]
- Rating (based on mHTT potency) [1]: ***** (a pIC50 value above 7.5 is indicated by five stars (*****))
- mHTT pIC50 [1]: 7.585
- tHTT pIC50 [2]: 7.493

SMILES: CC1(C)CC(Oc2ccc(-c3c(O)cc(-c4cn[nH]c4)cc3F)nn2)CC(C)(C)N1 [Compound 7, 3-fluoro-5-(1H-pyrazol-4-yl)-2-(6-((2,2,6,6-tetramethylpiperidin-4-yl)oxy)pyridazin-3-yl)phenol]
- Rating (based on mHTT potency) [1]: ***** (a pIC50 value above 7.5 is indicated by five stars (*****))
- mHTT pIC50 [1]: 7.5265
- tHTT pIC50 [2]: 7.51

SMILES: CN(c1ccc(-c2ccc(-c3ccnc(O)c3)cc2O)nn1)C1CC(C)(C)NC(C)(C)C1 [Compound 8, 4-(3-hydroxy-4-(6-(methyl(2,2,6,6-tetramethylpiperidin-4-yl)amino)pyridazin-3-yl)phenyl)pyridin-2-ol]
- Rating (based on mHTT potency) [1]: **** (a pIC50 value between 7.0 and 7.5 is indicated by four stars (****))
- mHTT pIC50 [1]: 7.4855
- tHTT pIC50 [2]: 7.4435

SMILES: CN(c1nnc(-c2c(O)cc(-c3cn[nH]c3)cc2Cl)s1)C1CC(C)(C)NC(C)(C)C1 [Compound 9, 3-chloro-2-(5-(methyl(2,2,6,6-tetramethylpiperidin-4-yl)amino)-1,3,4-thiadiazol-2-yl)-5-(1H-pyrazol-4-yl)phenol]
- Rating (based on mHTT potency) [1]: **** (a pIC50 value between 7.0 and 7.5 is indicated by four stars (****))
- mHTT pIC50 [1]: 7.4435
- tHTT pIC50 [2]: 7.353

SMILES: Cc1cc2cc(-c3ccc(N(C)C4CC(C)(C)NC(C)(C)C4)nn3)c(O)cc2c(C#N)n1 [Compound 10, 7-hydroxy-3-methyl-6-(6-(methyl(2,2,6,6-tetramethylpiperidin-4-yl)amino)pyridazin-3-yl)isoquinoline-1-carbonitrile]
- Rating (based on mHTT potency) [1]: **** (a pIC50 value between 7.0 and 7.5 is indicated by four stars (****))
- mHTT pIC50 [1]: 7.4395
- tHTT pIC50 [2]: 7.3875

SMILES: Cc1cc2cc(O)c(-c3ccc(N(C)C4CC(C)(C)NC(C)(C)C4)nn3)cc2c(C)n1 [Compound 11, 1,3-dimethyl-7-(6-(methyl(2,2,6,6-tetramethylpiperidin-4-yl)amino)pyridazin-3-yl)isoquinolin-6-ol]
- Rating (based on mHTT potency) [1]: **** (a pIC50 value between 7.0 and 7.5 is indicated by four stars (****))
- mHTT pIC50 [1]: 7.3875
- tHTT pIC50 [2]: 7.3965

SMILES: CC1(C)CC(Nc2ccc(-c3ccc(-n4cccn4)cc3O)nn2)CC(C)(C)N1 [Compound 12, 5-(1H-pyrazol-1-yl)-2-(6-((2,2,6,6-tetramethylpiperidin-4-yl)amino)pyridazin-3-yl)phenol]
- Rating (based on mHTT potency) [1]: **** (a pIC50 value between 7.0 and 7.5 is indicated by four stars (****))
- mHTT pIC50 [1]: 7.379
- tHTT pIC50 [2]: 7.2825

SMILES: CN(c1nnc(-c2ccc(-c3cn[nH]c3)cc2O)s1)C1CC(C)(C)NC(C)(C)C1 [Compound 13, 2-(5-(methyl(2,2,6,6-tetramethylpiperidin-4-yl)amino)-1,3,4-thiadiazol-2-yl)-5-(1H-pyrazol-4-yl)phenol]
- Rating (based on mHTT potency) [1]: **** (a pIC50 value between 7.0 and 7.5 is indicated by four stars (****))
- mHTT pIC50 [1]: 7.3545
- tHTT pIC50 [2]: 7.383

SMILES: CN(c1ccc(-c2cc(Cl)c(-c3cn[nH]c3)cc2O)nn1)C1CC(C)(C)NC(C)(C)C1 [Compound 14, 4-chloro-2-(6-(methyl(2,2,6,6-tetramethylpiperidin-4-yl)amino)pyridazin-3-yl)-5-(1H-pyrazol-4-yl)phenol]
- Rating (based on mHTT potency) [1]: **** (a pIC50 value between 7.0 and 7.5 is indicated by four stars (****))
- mHTT pIC50 [1]: 7.35
- tHTT pIC50 [2]: 7.389

SMILES: Cc1ccc2cc(O)c(-c3ccc(N(C)C4CC(C)(C)NC(C)(C)C4)nn3)cc2n1 [Compound 15, 2-methyl-7-(6-(methyl(2,2,6,6-tetramethylpiperidin-4-yl)amino)pyridazin-3-yl)quinolin-6-ol]
- Rating (based on mHTT potency) [1]: **** (a pIC50 value between 7.0 and 7.5 is indicated by four stars (****))
- mHTT pIC50 [1]: 7.349
- tHTT pIC50 [2]: 7.283

SMILES: CN(c1nnc(-c2ccc(-c3cnn(C)c3)cc2O)s1)C1CC(C)(C)NC(C)(C)C1 [Compound 16, 2-(5-(methyl(2,2,6,6-tetramethylpiperidin-4-yl)amino)-1,3,4-thiadiazol-2-yl)-5-(1-methyl-1H-pyrazol-4-yl)phenol]
- Rating (based on mHTT potency) [1]: **** (a pIC50 value between 7.0 and 7.5 is indicated by four stars (****))
- mHTT pIC50 [1]: 7.3285
- tHTT pIC50 [2]: 7.481

SMILES: Cc1cnc2cc(-c3ccc(N(C)C4CC(C)(C)NC(C)(C)C4)nn3)c(O)cc2c1 [Compound 17, 3-methyl-7-(6-(methyl(2,2,6,6-tetramethylpiperidin-4-yl)amino)pyridazin-3-yl)quinolin-6-ol]
- Rating (based on mHTT potency) [1]: **** (a pIC50 value between 7.0 and 7.5 is indicated by four stars (****))
- mHTT pIC50 [1]: 7.2895
- tHTT pIC50 [2]: 7.424

SMILES: CN(c1ccc(-c2ccc(-n3cccn3)cc2O)nn1)C1CC(C)(C)NC(C)(C)C1 [Compound 19, 2-(6-(methyl(2,2,6,6-tetramethylpiperidin-4-yl)amino)pyridazin-3-yl)-5-(1H-pyrazol-1-yl)phenol]
- Rating (based on mHTT potency) [1]: **** (a pIC50 value between 7.0 and 7.5 is indicated by four stars (****))
- mHTT pIC50 [1]: 7.2235
- tHTT pIC50 [2]: 7.178

SMILES: COc1cc(-c2cnn(C)c2)cc(O)c1-c1ccc(N(C)C2CC(C)(C)NC(C)(C)C2)nn1 [Compound 20, 3-methoxy-2-(6-(methyl(2,2,6,6-tetramethylpiperidin-4-yl)amino)pyridazin-3-yl)-5-(1-methyl-1H-pyrazol-4-yl)phenol]
- Rating (based on mHTT potency) [1]: **** (a pIC50 value between 7.0 and 7.5 is indicated by four stars (****))
- mHTT pIC50 [1]: 7.22
- tHTT pIC50 [2]: 7.106

SMILES: CN(c1ccc(-c2cc3ccc(C(N)=O)nc3cc2O)nn1)C1CC(C)(C)NC(C)(C)C1 [Compound 21, 7-hydroxy-6-(6-(methyl(2,2,6,6-tetramethylpiperidin-4-yl)amino)pyridazin-3-yl)quinoline-2-carboxamide]
- Rating (based on mHTT potency) [1]: **** (a pIC50 value between 7.0 and 7.5 is indicated by four stars (****))
- mHTT pIC50 [1]: 7.203
- tHTT pIC50 [2]: 7.221

SMILES: CN(c1nnc(-c2cc(F)c(-c3cn[nH]c3)cc2Cl)s1)C1CC(C)(C)NC(C)(C)C1 [Compound 22, 5-(2-chloro-5-fluoro-4-(1H-pyrazol-4-yl)phenyl)-N-methyl-N-(2,2,6,6-tetramethylpiperidin-4-yl)-1,3,4-thiadiazol-2-amine]
- Rating (based on mHTT potency) [1]: **** (a pIC50 value between 7.0 and 7.5 is indicated by four stars (****))
- mHTT pIC50 [1]: 7.1945
- tHTT pIC50 [2]: 7.1125
